Laboratory results: PubChem BioAssay (NCI)
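Each compound was tested at five concentrations against cells in 96-well plates for 48 hours. Here, GI50 denotes the concentration required for 50% inhibition of growth. TGI marks complete inhibition of growth.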

What was measured:
Test in all cases: NCI tumour cell line growth inhibition, 48 h
HL-60(TB) leukemia = test system: HL-60(TB) leukemia
A549 NSCLC = test system: A549 NSCLC
SK-MEL-5 melanoma = test system: SK-MEL-5 melanoma
SK-OV-3 ovarian = test system: SK-OV-3 ovarian
RXF 393 renal = test system: RXF 393 renal
UACC-257 melanoma = test system: UACC-257 melanoma
OVCAR-8 ovarian = test system: OVCAR-8 ovarian
BT-549 breast = test system: BT-549 breast
SK-MEL-2 melanoma = test system: SK-MEL-2 melanoma
UO-31 renal = test system: UO-31 renal
DU-145 prostate = test system: DU-145 prostate
CAKI-1 renal = test system: CAKI-1 renal
OVCAR-4 ovarian = test system: OVCAR-4 ovarian
LOX IMVI melanoma = test system: LOX IMVI melanoma
SNB-19 CNS = test system: SNB-19 CNS
SK-MEL-28 melanoma = test system: SK-MEL-28 melanoma
HOP-92 NSCLC = test system: HOP-92 NSCLC
HOP-62 NSCLC = test system: HOP-62 NSCLC
MDA-MB-435 = test system: MDA-MB-435
MALME-3M melanoma = test system: MALME-3M melanoma
OVCAR-3 ovarian = test system: OVCAR-3 ovarian
PC-3 prostate = test system: PC-3 prostate
TK-10 renal = test system: TK-10 renal
T-47D breast = test system: T-47D breast
SW-620 colon = test system: SW-620 colon
NCI-H23 lung = test system: NCI-H23 lung
HCT-116 colon = test system: HCT-116 colon
U251 CNS = test system: U251 CNS
SF-268 CNS = test system: SF-268 CNS
UACC-62 melanoma = test system: UACC-62 melanoma
SNB-75 CNS = test system: SNB-75 CNS
NCI/ADR-RES ovarian = test system: NCI/ADR-RES ovarian
MDA-MB-231 breast = test system: MDA-MB-231 breast
SF-295 CNS = test system: SF-295 CNS
EKVX NSCLC = test system: EKVX NSCLC
K-562 leukemia = test system: K-562 leukemia
NCI-H460 lung = test system: NCI-H460 lung
HCT-15 colon = test system: HCT-15 colon
ACHN renal = test system: ACHN renal
IGROV1 ovarian = test system: IGROV1 ovarian
KM12 colon = test system: KM12 colon
MOLT-4 leukemia = test system: MOLT-4 leukemia
786-0 renal = test system: 786-0 renal
RPMI-8226 leukemia = test system: RPMI-8226 leukemia
COLO 205 colon = test system: COLO 205 colon
SN12C renal = test system: SN12C renal
HT29 colon = test system: HT29 colon
M14 melanoma = test system: M14 melanoma

Compound: COC(=O)/C(C#N)=C\N1CCN(C(=O)c2ccco2)C1=S
- GI50 (HL-60(TB) leukemia): 6.94 µM
- TGI (HL-60(TB) leukemia): > 100 µM
- GI50 (A549 NSCLC): 14.6 µM
- TGI (A549 NSCLC): 37.7 µM
- GI50 (SK-MEL-5 melanoma): 14.8 µM
- TGI (SK-MEL-5 melanoma): 31 µM
- GI50 (SK-OV-3 ovarian): 28.2 µM
- TGI (SK-OV-3 ovarian): > 100 µM
- GI50 (RXF 393 renal): 3.1 µM
- TGI (RXF 393 renal): 7.71 µM
- GI50 (UACC-257 melanoma): 5.94 µM
- TGI (UACC-257 melanoma): 22.5 µM
- GI50 (OVCAR-8 ovarian): 15.5 µM
- TGI (OVCAR-8 ovarian): 56.2 µM
- GI50 (BT-549 breast): 4.16 µM
- TGI (BT-549 breast): 13.6 µM
- GI50 (SK-MEL-2 melanoma): 2.94 µM
- TGI (SK-MEL-2 melanoma): 8.39 µM
- GI50 (UO-31 renal): 5.19 µM
- TGI (UO-31 renal): 21.3 µM
- GI50 (DU-145 prostate): 3.54 µM
- TGI (DU-145 prostate): 14 µM
- GI50 (CAKI-1 renal): 3.43 µM
- TGI (CAKI-1 renal): 14.1 µM
- GI50 (OVCAR-4 ovarian): 23.3 µM
- TGI (OVCAR-4 ovarian): 58.8 µM
- GI50 (LOX IMVI melanoma): 2.39 µM
- TGI (LOX IMVI melanoma): 8 µM
- GI50 (SNB-19 CNS): 54.9 µM
- TGI (SNB-19 CNS): > 100 µM
- GI50 (SK-MEL-28 melanoma): 13 µM
- TGI (SK-MEL-28 melanoma): 79.6 µM
- GI50 (HOP-92 NSCLC): 14 µM
- TGI (HOP-92 NSCLC): 43.1 µM
- GI50 (HOP-62 NSCLC): 22.3 µM
- TGI (HOP-62 NSCLC): 46.8 µM
- GI50 (MDA-MB-435): 6.82 µM
- TGI (MDA-MB-435): 46.5 µM
- GI50 (MALME-3M melanoma): 32.7 µM
- TGI (MALME-3M melanoma): 63.7 µM
- GI50 (OVCAR-3 ovarian): 4.92 µM
- TGI (OVCAR-3 ovarian): 33.6 µM
- GI50 (PC-3 prostate): 6.82 µM
- TGI (PC-3 prostate): 63.4 µM
- GI50 (TK-10 renal): 3.63 µM
- TGI (TK-10 renal): 13.2 µM
- GI50 (T-47D breast): 4.63 µM
- TGI (T-47D breast): 67.1 µM
- GI50 (SW-620 colon): 5.2 µM
- TGI (SW-620 colon): 19.7 µM
- GI50 (NCI-H23 lung): 13.2 µM
- TGI (NCI-H23 lung): 27.7 µM
- GI50 (HCT-116 colon): 3.95 µM
- TGI (HCT-116 colon): 16 µM
- GI50 (U251 CNS): 6.78 µM
- TGI (U251 CNS): 37 µM
- GI50 (SF-268 CNS): 4.83 µM
- TGI (SF-268 CNS): 17.9 µM
- GI50 (UACC-62 melanoma): 10.7 µM
- TGI (UACC-62 melanoma): 27.2 µM
- GI50 (SNB-75 CNS): 15.5 µM
- TGI (SNB-75 CNS): > 100 µM
- GI50 (NCI/ADR-RES ovarian): 24 µM
- TGI (NCI/ADR-RES ovarian): 58.4 µM
- GI50 (MDA-MB-231 breast): 4.17 µM
- TGI (MDA-MB-231 breast): 15.8 µM
- GI50 (SF-295 CNS): 26 µM
- TGI (SF-295 CNS): 65.1 µM
- GI50 (EKVX NSCLC): 10.2 µM
- TGI (EKVX NSCLC): 28.5 µM
- GI50 (K-562 leukemia): 3.68 µM
- TGI (K-562 leukemia): > 100 µM
- GI50 (NCI-H460 lung): 2.47 µM
- TGI (NCI-H460 lung): 4.95 µM
- GI50 (HCT-15 colon): 2.95 µM
- TGI (HCT-15 colon): > 100 µM
- GI50 (ACHN renal): 4.81 µM
- TGI (ACHN renal): 23.3 µM
- GI50 (IGROV1 ovarian): 6.16 µM
- TGI (IGROV1 ovarian): 26.4 µM
- GI50 (KM12 colon): 3.3 µM
- TGI (KM12 colon): 12.6 µM
- GI50 (MOLT-4 leukemia): 7.41 µM
- TGI (MOLT-4 leukemia): > 100 µM
- GI50 (786-0 renal): 6.25 µM
- TGI (786-0 renal): 21.7 µM
- GI50 (RPMI-8226 leukemia): 3.3 µM
- TGI (RPMI-8226 leukemia): 62.4 µM
- GI50 (COLO 205 colon): 31.7 µM
- TGI (COLO 205 colon): > 100 µM
- GI50 (SN12C renal): 3.69 µM
- TGI (SN12C renal): 14.4 µM
- GI50 (HT29 colon): 12.2 µM
- TGI (HT29 colon): 55.1 µM
- GI50 (M14 melanoma): 6.35 µM
- TGI (M14 melanoma): 19.9 µM
